Assay results as given in US10407388B2, “Thiourea derivatives as activators of RORα and pharmaceutical composition containing same” (SEOUL NATIONAL UNIVERSITY R & DB FOUNDATION, priority 2011, dated 2019).

Tests used:
LXRα = experiment: Transcriptional activity of LXRα, LXRE-Luc reporter in HepG2 cells treated with T17; format: cell-based, human; details: 1 μM, 10 μM, 20 μM, 50 μM, and 100 μM with 1 μM T17, 24 hours; FIG. 5a
Experimental: A human hepatoma cell line and HepG2 (ATCC HB 8065) were purchased from ATCC. HepG2 cells (1.2×10^5 cells/well) were seeded on a 24-well culture plate and cultured overnight in a DMEM containing 10% FBS. The HepG2 cells were maintained at 37° C. in a humidification thermostat containing 5% CO2 and 95% air. After culturing, the HepG2 cells were transformed with LXRE-Luc reporter (0.1 μg) using Welfect-EXTM Plus (WelGENE Inc., Korea). 24 hours after transformation, the HepG2 cells were treated with particular concentrations (1 μM, 10 μM, 20 μM, 50 μM, and 100 μM) of JC1-38, JC1-40, and JC1-42 and 1 μM T17 (T0901317), which is a ligand of LXRα, for 24 hours. Subsequently, cell lysates were collected, and luciferase activity was analyzed and determined using an analytical luminescence luminometer. The luciferase activity was standardized by β-gal activity to determine transcriptional activity, and data was attained as the mean and SD for two or three independent experimental results, and the results thereof are illustrated in FIG. 5a.

ACO2 = experiment: Fatty acid oxidation gene ACO2 in HepG2 cells, real-time RT-PCR; format: cell-based, human; details: 100 μM, 24 hours; FIG. 8
Experimental: (§1) HepG2 cells (1×10^6 cells/well) were seeded on a 60-dish and cultured overnight in a DMEM containing 10% FBS. The HepG2 cells were maintained at 37° C. in a humidification thermostat containing 5% CO2 and 95% air. After culturing, the HepG2 cells were treated with JC1-38, JC1-40, and JC1-42 at a concentration of 100 μM for 24 hours. After treatment, effects thereof on transcriptional activity were analyzed by real-time reverse transcriptase-polymerase chain reaction (real-time RT-PCR) analysis. The PCR was performed using the following primers respectively specific to MCAD, ACO1, ACO2, HMGCS2, CPT-1, and ACS, which are involved in fatty acid oxidation: […]

MTTP = experiment: VLDL secretion gene MTTP in HepG2 cells, RT-PCR; format: cell-based, human; details: 100 μM, 24 hours; FIG. 9b
Experimental: as §1, with “60-dish,” for “60-dish”, “RT-PCR” for “real-time reverse transcriptase-polymerase chain reaction (real-time RT-PCR)”, “CD36 (see FIG. 9a) involved in fatty acid uptake” for “MCAD, ACO1, ACO2, HMGCS2, CPT-1,”, “MTTP and ApoB100 (see FIG. 9b),” for “ACS,”, “the secretion of very low density lipoproteins:” for “fatty acid oxidation:”

ApoB100 = experiment: VLDL secretion gene ApoB100 in HepG2 cells, RT-PCR; format: cell-based, human; details: 100 μM, 24 hours; FIG. 9b
Experimental: as §1, with “60-dish,” for “60-dish”, “RT-PCR” for “real-time reverse transcriptase-polymerase chain reaction (real-time RT-PCR)”, “CD36 (see FIG. 9a) involved in fatty acid uptake” for “MCAD, ACO1, ACO2, HMGCS2, CPT-1,”, “MTTP and ApoB100 (see FIG. 9b),” for “ACS,”, “the secretion of very low density lipoproteins:” for “fatty acid oxidation:”

RORα = biological target: T1, RORα (Homo sapiens, UniProt P35398); experiment: Transcriptional activity of RORα according to concentration, RORE-Luc reporter and Flag-RORα vector in CV-1 cells (Experimental Example 2); format: cell-based; details: for transcriptional activity of RORα / activity of RORα at low concentrations: 1 μM; for transcriptional activity of RORα: 10 μM, 20 μM, 50 μM, and 100 μM, 24 hours, FIG. 4; for activity of RORα at low concentrations: 10 μM, and 20 μM; for effect of increasing the activity of RORα compared with melatonin: 50 μM to 100 μM, melatonin 100 μM
T1 construct: expressed in transfected cells; host or cells: CV-1 cells (ATCC CCL-70)
T1 sequence (P35398 1-523): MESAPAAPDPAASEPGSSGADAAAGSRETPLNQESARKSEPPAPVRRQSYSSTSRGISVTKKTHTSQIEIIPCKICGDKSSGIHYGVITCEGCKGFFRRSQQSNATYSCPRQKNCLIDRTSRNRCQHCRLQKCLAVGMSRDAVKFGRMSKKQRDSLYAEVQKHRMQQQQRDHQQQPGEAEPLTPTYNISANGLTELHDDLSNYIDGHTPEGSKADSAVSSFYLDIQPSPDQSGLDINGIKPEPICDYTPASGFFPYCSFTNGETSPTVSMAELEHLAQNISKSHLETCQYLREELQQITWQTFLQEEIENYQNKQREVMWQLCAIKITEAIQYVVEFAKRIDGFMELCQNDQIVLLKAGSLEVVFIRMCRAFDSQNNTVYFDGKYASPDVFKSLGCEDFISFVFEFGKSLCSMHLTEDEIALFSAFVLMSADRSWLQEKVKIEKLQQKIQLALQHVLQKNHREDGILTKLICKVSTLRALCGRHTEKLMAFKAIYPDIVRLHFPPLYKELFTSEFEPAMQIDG
Experimental: CV-1 cells (4×10^4 cells/well) were seeded on a 24-well culture plate and cultured overnight in a DMEM containing 10% FBS. The CV-1 cells were maintained at 37° C. in a humidification thermostat containing 5% CO2 and 95% air. After culturing, the CV-1 cells were transformed with RORE-Luc reporter (0.05 μg) and Flag-RORα vector (0.005 μg) using calcium phosphate. […] Subsequently, cell lysates were collected, and luciferase activity was analyzed and determined using an analytical luminescence luminometer. The luciferase activity was standardized by β-gal activity to determine transcriptional efficiency, and data was attained as the mean and SD for two or three independent experimental results, and the results thereof are illustrated in FIG. 4.

CNC(=S)NCc1ccccc1-c1ccncc1 [Compound 38, 1-methyl-3-(4-pyridinyl-2-benzyl)-thiourea]
transcriptional activity of LXRα, which had been increased by T17 (LXRα): decreased in a manner dependent on the concentration
transcriptional activity of ACO2 (ACO2): increased
transcriptional activity of MTTP (MTTP): increased
transcriptional activity of ApoB100 (ApoB100): increased
transcriptional activity of RORα (RORα): increased in a manner dependent on the concentration
activity of RORα at low concentrations (RORα): insignificantly increased
effect of increasing the activity of RORα compared with melatonin (RORα): comparable to or surpassed the effect provided by melatonin

CNC(=S)NCc1ccc(OCc2ccccc2)cc1 [Compound 40, 1-(4-benzyloxy-benzyl)-3-methyl-thiourea]
transcriptional activity of LXRα, which had been increased by T17 (LXRα): decreased in a manner dependent on the concentration
transcriptional activity of ACO2 (ACO2): increased
transcriptional activity of MTTP (MTTP): increased
transcriptional activity of ApoB100 (ApoB100): increased
transcriptional activity of RORα (RORα): increased in a manner dependent on the concentration
activity of RORα at low concentrations (RORα): insignificantly increased
effect of increasing the activity of RORα compared with melatonin (RORα): comparable to or surpassed the effect provided by melatonin

CNC(=S)NCc1ccc(Oc2ccccc2)cc1 [Compound 42, 1-(4-phenoxy-benzyl)-3-methyl-thiourea]
transcriptional activity of LXRα, which had been increased by T17 (LXRα): decreased in a manner dependent on the concentration
transcriptional activity of ACO2 (ACO2): increased
transcriptional activity of MTTP (MTTP): increased
transcriptional activity of ApoB100 (ApoB100): increased
transcriptional activity of RORα (RORα): increased in a manner dependent on the concentration
activity of RORα at low concentrations (RORα): insignificantly increased
effect of increasing the activity of RORα compared with melatonin (RORα): comparable to or surpassed the effect provided by melatonin
